Reference: BindingDB's records for doi:10.1021/jm0010623 (Bayer, 2001)

Legend:
[1] = biological target: DNA gyrase (Escherichia coli); experiment: Antibacterial activity against Escherichia coli DNA gyrase
[2] = biological target: DNA gyrase (Micrococcus luteus); experiment: Antibacterial activity against Micrococcus luteus DNA gyrase.
[3] = biological target: DNA topoisomerase I (Escherichia coli); experiment: Antibacterial activity against Escherichia coli DNA topoisomerase I

Row | Structure (SMILES) | IC50 [1] [µM] | IC50 [2] [µM] | IC50 [3] [µM]
1 | COC(=O)c1c(Br)c(OC)cc(O)c1CSC[C@H](Nc1nc(-c2ccc([N+](=O)[O-])cc2)cs1)C1=NOCCO1 [BAY-507952] | 0.781 | 0.625 | 187
2 | COC(=O)c1c(Br)c(OC)cc(O)c1CSC[C@@H](Nc1nc(-c2ccc([N+](=O)[O-])cc2)cs1)C1=NOCCO1 | – | 62.5 | –
3 | COC(=O)c1c(Br)c(OC)cc(O)c1CSC[C@H](Nc1nc(-c2ccc([N+](=O)[O-])cc2)cs1)C(=O)OC [BAY-507950] | 0.489 | 0.326 | 195
4 | COC(=O)c1c(Br)c(OC)cc(O)c1CSC[C@H](Nc1nc(-c2ccc([N+](=O)[O-])cc2)cs1)c1nc(C)no1 [Ro-616653] | 0.157 | 0.157 | 188
